One test concerns the target T1, MAT2A homodimer (Homo sapiens, UniProt P31153).
T1 construct: inferred from Ni sepharose purification with imidazole elution; made in house; host or cells: Sf9 insect cells, baculovirus (Bac to Bac, pFASTBAC1)
Briefly: MAT2A inhibition (biochemical, liberated phosphate, PiColorLock Gold). As to conditions: recombinant MAT2A homodimer; IC50 bin with Max Inh.; read-out: Enzyme Inhibition Bin. On the procedure: Mat2A protein was expressed by recombinant baculovirus in SF9 infected cells using the Bac to Bac system cloned into the pFASTBAC1 vector (Invitrogen, Carlsbad, Calif.). Recombinant MAT2A was isolated from the cell lysate of 150 g of infected cells using HP Ni sepharose column chromatography. Recombinant MAT2A homodimer was eluted with 250 and 500 mM imidazole, and fractions containing MAT2A were identified by sodium dodecyl sulfate polyacrylamide gel electrophoresis and pooled.
For determination of the inhibitory potency of compounds against the MAT2A homodimer, protein was diluted to 4 μg/mL in assay buffer (50 mM Tris, pH 8.0, 50 mM KCl, 15 mM MgCl2, 0.3 mM EDTA, 0.005% [w/v] bovine serum albumin [BSA]). Test compound was prepared in 100% dimethyl sulfoxide (DMSO) at 50× the desired final concentration. A 1 μL volume of compound dilution was added to 40 μL of enzyme dilution and the mixture was allowed to equilibrate for 60 minutes at 25° C. The enzymatic assay was initiated by the addition of 10 μL of substrate mix (500 μM ATP, pH 7.0, 400 μM L-methionine in 1× assay buffer), and the mixture was incubated for a further 60 minutes at 25° C. The reaction was halted and the liberated phosphate released by the enzyme in stoichiometric amounts by the production of S-adenosyl methionine (SAM) was measured using the PiColorLock Gold kit (Innova Biosciences, UK). Absolute product amounts were determined by comparison to a standard curve of potassium phosphate buffer, pH 8.0. The compounds were also tested in a secondary assay utilizing 1 μg/mL MAT2A and incubated for 5 hours at 25° C. before halting and processing as above.
Specific compounds disclosed herein were tested in the foregoing assay and they were determined to inhibit MAT2A with an IC50. See, Table 1 below.

A further test concerns HCT116 MTAP−/−. Briefly: Inhibition of cellular proliferation, 4 days, Cell Titer Glo, HCT116 MTAP−/−. The format is cell-based. Conditions: Homo sapiens, HCT-116, 96 h, IC50 bin with Max Inh., read-out: 4 Day Relative Growth Inhibition (MTAP −/−). On the procedure:
(§1) Test compound impact on cancer cell growth was assessed by treating cancer cells with compound for 4 days and then measuring proliferation using an ATP-based cell proliferation readout (Cell Titer Glo, Promega Corporation).
(§2) In a typical assay an isogenic pair of HCT116 human colon carcinoma cell lines which vary only in MTAP deletion status (HCT116 MTAP+/+ and HCT116 MTAP−/−) were plated in 96-well dishes at appropriate cell density. Following 24 hours, cells were then treated with the candidate MAT2A inhibitor. Prior to addition to cells, the compound was first serially diluted in 100% DMSO, typically as a 3-fold serial dilution starting at 500× top dose with 10 dose points including DMSO only control. Compound was then transferred to a working stock plate in cell culture media by adding 5 μL of compound in DMSO to 495 μL of cell culture media. This working stock was then added to cells via a further 5-fold dilution, by adding 25 μL of working stock to 100 μL of cells in culture media. Following compound addition, cells were incubated at 37° C./5% CO2 for 4 days.
(§3) To measure inhibition of cellular proliferation, cells were allowed to equilibrate to room temperature for 30 minutes, and were then treated with 125 μL of Cell Titer Glo reagent. The plate was then covered with aluminum foil and shaken for 15 minutes to ensure complete mixing and full cell lysis. Luminescent signal was then measured using a plate-based luminometer Veritas version 1.9.2 using ATP standard curve to confirm assay reproducibility from run to run. This luminescence measure was converted to a proliferation index by subtracting from each data point the ATP luminescence signal measured from a bank (no cells) well and dividing by the ATP luminescence signal measured in 0.2% DMSO control well adjusted for signal in blank well. Compound activity was then represented as a percentage change in proliferation relative to a within-plate DMSO control against log 10 of compound concentration in molar (M) units.
(§4) Specific compounds disclosed herein were tested in the foregoing assay and they were determined to inhibit cellular proliferation with an IC50. See, Table 1 below.
On the technique in general: Cellular ATP, detected with luciferase, serves as a proxy for viable cell number.

The test system of the next test is HCT116 MTAP+/+. Briefly: Inhibition of cellular proliferation, 4 days, Cell Titer Glo, HCT116 MTAP+/+. The format is cell-based. Conditions: Homo sapiens, HCT-116, 96 h, IC50 bin with Max Inh., read-out: 4 Day Relative Growth Inhibition (MTAP +/+). On the procedure:
as §1, §2, §3, §4

The test system of test [1] is SAM in HCT116 human colon carcinoma cell line with MTAP gene deleted (MTAP −/−). Briefly: Cellular assay of target engagement (SAM), LC-MS/MS, 72 hrs. The format is cell-based. Conditions: HCT-116, IC50 bin with Max Inh., read-out: Cell 72 h SAM Inhibition (MTAP −/−). On the procedure: Measurement of MAT2A activity in cells was made by direct quantitation of the abundance of the product of its enzymatic activity, SAM. Cancer cells were treated with candidate MAT2A inhibitors for a suitable incubation period, and the cells were then lysed using a reagent which quenched any further enzyme activity. Soluble metabolites including SAM were collected and SAM itself was directly measured from the lysate using quantitative LC-MS/MS.
A typical assay was performed using an HCT116 human colon carcinoma cell line which was genetically engineered to delete the MTAP gene (commercially available from Horizon Discovery). This cell line was utilized because it was determined that loss of the MTAP gene predicts sensitivity to MAT2A inhibitors. Cells were plated in 96-well dishes at appropriate cell density. Following 24 hours, cells were then treated with the candidate MAT2A inhibitor. Prior to addition to cells, the compound was first serially diluted in 100% DMSO, typically as a 3-fold serial dilution starting at 500× top dose with 10 dose points including DMSO only control. Compound was then transferred to a working stock plate in cell culture media by adding 5 μL of compound in DMSO to 495 μL of cell culture media. This working stock was then added to cells via a further 5-fold dilution, by adding 25 μL of working stock to 100 μL of cells in culture media. Following compound addition, cells were incubated at 37° C./5% CO2 for 72 hrs.
To quantitate SAM levels following compound treatment, cells were gently washed once in ammonium carbonate buffer (75 mM at pH 7.4), placed on dry ice, and lysed with metabolite extraction buffer (80% cold methanol and 20% water (v/v) with acetic acid at 1M final concentration with 200 ng/mL deuterated d3-SAM as internal control). Following centrifugation at 4° C. at 3,200 rpm for 30 minutes, the supernatant was collected and stored at −80° C. until analysis by Liquid Chromatography with tandem Mass Spectrometry (LC-MS/MS). LC-MS/MS analysis was performed using an API6500 Mass Spectrometer (Sciex, Framingham, Mass., USA) operating in positive ion spray mode and equipped with a Waters UPLC Acquity (Waters, Milford, Mass., USA) BEH Amide column. Multiple Reaction Monitoring data was acquired for SAM and the d3-SAM standard, using a mass transition pair at m/z 399.2→250.1 and 402.2→250.1, respectively. In a typical LC-MS/MS analysis, the initial flow rate was 0.5 ml/min of 25% mobile phase A (acetonitrile and water at 5:95 (v/v) with 1% formic acid and 10 mM ammonium acetate) and 75% mobile phase B (acetonitrile and water at 95:5 (v/v) with 1% formic acid and 10 mM ammonium acetate), 0.2-0.5 minutes with 75%-35% mobile phase B, 25%-65% mobile phase A, at 0.5 min 65% mobile phase A and 35% mobile phase B, 1.0-1.1 minutes with 35%-75% mobile phase B, 65%-25% mobile phase A, at 1.1 min 25% mobile phase A and 75% mobile phase B with a total run time of 1.5 minutes.
Specific compounds disclosed herein were tested in the foregoing assay and they were determined to inhibit SAM with an IC50. See, Table 1 below.

Where only a bound is given, the exact number is not on record here.

T1 sequence (P31153 whole entry): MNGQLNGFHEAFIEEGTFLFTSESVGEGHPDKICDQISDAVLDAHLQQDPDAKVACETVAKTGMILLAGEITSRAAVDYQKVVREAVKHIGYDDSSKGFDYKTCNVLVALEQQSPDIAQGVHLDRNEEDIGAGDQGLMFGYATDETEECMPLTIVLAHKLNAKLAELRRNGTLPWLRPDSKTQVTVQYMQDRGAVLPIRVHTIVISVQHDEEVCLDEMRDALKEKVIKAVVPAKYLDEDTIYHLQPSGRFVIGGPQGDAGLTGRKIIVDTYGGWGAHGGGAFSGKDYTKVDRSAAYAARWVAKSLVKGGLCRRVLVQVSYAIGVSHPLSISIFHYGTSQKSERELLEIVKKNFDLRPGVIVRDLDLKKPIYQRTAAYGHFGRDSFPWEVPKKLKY

Regarding `Cc1ccc(-c2c(=O)n(-c3ccc4nn(C)cc4c3)nc3c(C#N)cn(CCC(F)(F)F)c23)cn1` [Example 108, 2-(2-methyl-2H-indazol-5-yl)-4-(6-methylpyridin-3-yl)-3-oxo-5-(3,3,3-trifluoropropyl)-3,5-dihydro-2H-pyrrolo[3,2-c]pyridazine-7-carbonitrile], the IC50 on MAT2A homodimer was 100 to 1000 nM; with HCT116 MTAP−/−, over 1000 nM; in the test with HCT116 MTAP+/+ it was 100 to 1000 nM; in test [1], 100 to 1000 nM.
As for `Cn1cc2cc(-n3nc4c(C#N)cn(CCC(F)(F)F)c4c(-c4ccc(C5CC5)nc4)c3=O)ccc2n1` [Example 109, 4-(6-cyclopropylpyridin-3-yl)-2-(2-methyl-2H-indazol-5-yl)-3-oxo-5-(3,3,3-trifluoropropyl)-3,5-dihydro-2H-pyrrolo[3,2-c]pyridazine-7-carbonitrile], the IC50 was under 100 nM at MAT2A homodimer, 100 to 1000 nM in the test on HCT116 MTAP−/−, over 1000 nM with HCT116 MTAP+/+ and 100 to 1000 nM in test [1].
With `COc1ccc(-c2c(=O)n(-c3ccc4nn(C)cc4c3)nc3ccn(CC4CC4)c23)cn1` [Example 110, 5-(cyclopropylmethyl)-4-(6-methoxypyridin-3-yl)-2-(2-methyl-2H-indazol-5-yl)-2,5-dihydro-3H-pyrrolo[3,2-c]pyridazin-3-one], the IC50 was under 100 nM at MAT2A homodimer, under 100 nM in the test with HCT116 MTAP−/−, over 1000 nM with HCT116 MTAP+/+ and under 100 nM in test [1].
As for `COc1ccc(-c2c(=O)n(-c3ccc4nn(C)cc4c3)nc3c(C#N)cn(CC4CC4)c23)cn1` [Example 111, 5-(cyclopropylmethyl)-4-(6-methoxypyridin-3-yl)-2-(2-methyl-2H-indazol-5-yl)-3-oxo-3,5-dihydro-2H-pyrrolo[3,2-c]pyridazine-7-carbonitrile], the IC50 is under 100 nM on MAT2A homodimer, under 100 nM with HCT116 MTAP−/−, over 1000 nM in the test with HCT116 MTAP+/+ and under 100 nM in test [1].
Take `Cn1cc2cc(-n3nc4ccn(CC5CC5)c4c(-c4ccc(Cl)cc4)c3=O)ccc2n1` [Example 112, 4-(4-chlorophenyl)-5-(cyclopropylmethyl)-2-(2-methyl-2H-indazol-5-yl)-2,5-dihydro-3H-pyrrolo[3,2-c]pyridazin-3-one]: the IC50 was under 100 nM at MAT2A homodimer, under 100 nM in the test on HCT116 MTAP−/−, over 1000 nM in the test with HCT116 MTAP+/+ and under 100 nM in test [1].
With `Cn1cc2cc(-n3nc4ccn(CC5CC5)c4c(-c4ccc(OC(F)F)nc4)c3=O)ccc2n1` [Example 113, 5-(cyclopropylmethyl)-4-(6-(difluoromethoxy)pyridin-3-yl)-2-(2-methyl-2H-indazol-5-yl)-2,5-dihydro-3H-pyrrolo[3,2-c]pyridazin-3-one], the IC50 on MAT2A homodimer was under 100 nM; with HCT116 MTAP−/−, under 100 nM; in the test on HCT116 MTAP+/+, over 1000 nM; in test [1] it was under 100 nM.
On to `Cn1cc2cc(-n3nc4c(C#N)cn(CC5CC5)c4c(-c4ccc(OC(F)F)nc4)c3=O)ccc2n1` [Example 114, 5-(cyclopropylmethyl)-4-(6-(difluoromethoxy)pyridin-3-yl)-2-(2-methyl-2H-indazol-5-yl)-3-oxo-3,5-dihydro-2H-pyrrolo[3,2-c]pyridazine-7-carbonitrile], for which the IC50 on MAT2A homodimer was under 100 nM; in the test on HCT116 MTAP−/−, under 100 nM; in the test on HCT116 MTAP+/+, over 1000 nM; in test [1], under 100 nM.
For the compound `CC(C)Cn1ccc2nn(-c3ccc4nn(C)cc4c3)c(=O)c(-c3ccc(OC(F)F)cc3)c21` [Example 115, 4-(4-(difluoromethoxy)phenyl)-5-isobutyl-2-(2-methyl-2H-indazol-5-yl)-2,5-dihydro-3H-pyrrolo[3,2-c]pyridazin-3-one], the IC50 on MAT2A homodimer is under 100 nM; in the test on HCT116 MTAP−/−, under 100 nM; with HCT116 MTAP+/+, over 1000 nM; in test [1], under 100 nM.
As to `CC(C)Cn1cc(C#N)c2nn(-c3ccc4nn(C)cc4c3)c(=O)c(-c3ccc(OC(F)F)cc3)c21` [Example 116, 4-(4-(difluoromethoxy)phenyl)-5-isobutyl-2-(2-methyl-2H-indazol-5-yl)-3-oxo-3,5-dihydro-2H-pyrrolo[3,2-c]pyridazine-7-carbonitrile], the IC50 at MAT2A homodimer is under 100 nM; in the test with HCT116 MTAP−/−, 100 to 1000 nM; in the test with HCT116 MTAP+/+, over 1000 nM; in test [1] it was under 100 nM.
Turning to `Cn1cc2cc(-n3nc4c(I)cn(CC5CC5)c4c(-c4ccc(C5CC5)nc4)c3=O)ccc2n1` [Example 117, 5-(cyclopropylmethyl)-4-(6-cyclopropylpyridin-3-yl)-7-iodo-2-(2-methyl-2H-indazol-5-yl)-2,5-dihydro-3H-pyrrolo[3,2-c]pyridazin-3-one], the IC50 at MAT2A homodimer is under 100 nM; in the test on HCT116 MTAP−/−, under 100 nM; with HCT116 MTAP+/+, over 1000 nM; in test [1] it was under 100 nM.

Values taken from US20220169654A1, “New Organic Compounds” (Servier Pharmaceuticals LLC, priority 2020, published 2022).
